Results as given in US9255100B2 (BAYER INTELLECTUAL PROPERTY GMBH, priority 2010, dated 2016).

What follows are compounds tested against T1, N-terminally GST-tagged human full length recombinant Mps-1 kinase (Homo sapiens, UniProt P33981) (assay: Mps-1 kinase assay (TR-FRET)). Settings: Mps1 IC50 [nM], 10 μM ATP, 1 μM peptide substrate, 60 min at 22° C.
T1 construct: N-terminally GST-tagged human full length recombinant Mps-1 kinase; purchased Invitrogen, Karslruhe, Germany PV4071
T1 sequence (P33981 1-857): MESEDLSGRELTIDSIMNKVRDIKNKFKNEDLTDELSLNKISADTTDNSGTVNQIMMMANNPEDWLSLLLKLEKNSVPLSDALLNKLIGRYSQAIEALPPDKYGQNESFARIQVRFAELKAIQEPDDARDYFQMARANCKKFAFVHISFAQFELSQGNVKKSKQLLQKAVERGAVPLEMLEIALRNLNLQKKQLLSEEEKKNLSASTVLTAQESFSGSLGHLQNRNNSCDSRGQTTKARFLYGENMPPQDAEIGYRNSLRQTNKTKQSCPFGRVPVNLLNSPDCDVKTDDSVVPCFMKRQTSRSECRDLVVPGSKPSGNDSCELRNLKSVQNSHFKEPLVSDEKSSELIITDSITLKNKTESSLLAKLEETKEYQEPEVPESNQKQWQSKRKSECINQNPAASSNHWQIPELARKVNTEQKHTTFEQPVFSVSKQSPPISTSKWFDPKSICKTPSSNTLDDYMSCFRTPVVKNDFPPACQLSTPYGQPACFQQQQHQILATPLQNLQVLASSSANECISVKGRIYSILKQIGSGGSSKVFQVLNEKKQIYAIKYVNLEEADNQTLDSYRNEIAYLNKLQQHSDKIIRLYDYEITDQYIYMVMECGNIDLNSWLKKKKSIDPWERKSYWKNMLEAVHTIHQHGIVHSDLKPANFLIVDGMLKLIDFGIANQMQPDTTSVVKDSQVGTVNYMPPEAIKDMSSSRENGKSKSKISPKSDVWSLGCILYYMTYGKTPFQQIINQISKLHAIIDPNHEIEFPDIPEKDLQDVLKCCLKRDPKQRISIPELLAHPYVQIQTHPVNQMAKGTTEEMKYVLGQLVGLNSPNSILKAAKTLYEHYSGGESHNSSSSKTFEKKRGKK
Type: biochemical
Outline: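 Compounds were tested against recombinant full-length Mps-1 bearing an N-terminal GST tag, about 1 nM final, with a biotinylated amide-capped peptide as substrate. Detection reagents were then bound for 1 h at 22° C and the product read by TR-FRET.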

SMILES	IC50
CC(C)CNc1cc(-c2ccccc2O)nn2c(-c3ccc(C(=O)NC4CC4)cc3)cnc12 [Example 139, N-cyclopropyl-4-{6-(2-hydroxyphenyl)-8-[(2-methylpropyl)amino]imidazo[1,2-b]pyridazin-3-yl}benzamide]	3.7 nM
CC(C)CNc1cc(-c2cccc(O)c2)nn2c(-c3ccc(C(=O)NC4CC4)cc3)cnc12 [Example 140, N-cyclopropyl-4-{6-(3-hydroxyphenyl)-8-[(2-methylpropyl)amino]imidazo[1,2-b]pyridazin-3-yl}benzamide]	3.9 nM
CC(C)CNc1cc(-c2ccc(O)cc2)nn2c(-c3ccc(C(=O)NC4CC4)cc3)cnc12 [Example 141, N-cyclopropyl-4-{6-(4-hydroxyphenyl)-8-[(2-methylpropyl)amino]imidazo[1,2-b]pyridazin-3-yl}benzamide]	2.4 nM
CC(C)CNc1cc(-c2ccc(S(C)(=O)=O)cc2)nn2c(-c3ccc(C(=O)NC4CC4)cc3)cnc12 [Example 142, N-cyclopropyl-4-{8-[(2-methylpropyl)amino]-6-[4-(methylsulfonyl)phenyl]imidazo[1,2-b]pyridazin-3-yl}benzamide]	1.4 nM
CC(C)CNc1cc(-c2cncnc2)nn2c(-c3ccc(C(=O)NC4CC4)cc3)cnc12 [Example 143, N-cyclopropyl-4-{8-[(2-methylpropyl)amino]-6-(pyrimidin-5-yl)imidazo [1,2-b]pyridazin-3-yl} benzamide]	4.7 nM
CC(C)CNc1cc(-c2ccc3ncccc3c2)nn2c(-c3ccc(C(=O)NC4CC4)cc3)cnc12 [Example 144, N-cyclopropyl-4-{8-[(2-methylpropyl)amino]-6-(quinolin-6-yl)imidazo [1,2-b]pyridazin-3-yl} benzamide]	2.3 nM
CC(C)CNc1cc(-c2ccc3nccn3c2)nn2c(-c3ccc(C(=O)NC4CC4)cc3)cnc12 [Example 145, N-cyclopropyl-4-{6-(imidazo[1,2-a]pyridin-6-yl)-8-[(2-methylpropyl)amino]imidazo[1,2-b]pyridazin-3-yl}benzamide]	< 1 nM
CNC(=O)Nc1ccc(-c2cc(NCC(C)C)c3ncc(-c4ccc(C(=O)NC5CC5)cc4)n3n2)cc1 [Example 146, N-cyclopropyl-4-(6-{4-[(methylcarbamoyl)amino]phenyl}-8-[(2-methylpropyl)amino]imidazo[1,2-b]pyridazin-3-yl)benzamide]	3.8 nM
CC(C)CNc1cc(-c2cncc(C#N)c2)nn2c(-c3ccc(C(=O)NC4CC4)cc3)cnc12 [Example 147, 4-{6-(5-Cyanopyridin-3-yl)-8-[(2-methylpropyl)amino]imidazo[1,2-b]pyridazin-3-yl}-N-cyclopropylbenzamide]	2.2 nM
Cc1nnc(-c2ccc(-c3cc(NCC(C)C)c4ncc(-c5ccc(C(=O)NC6CC6)cc5)n4n3)cc2)o1 [Example 148, N-cyclopropyl-4-{6-[4-(5-methyl-1,3,4-oxadiazol-2-yl)phenyl]-8-[(2-methylpropyl)amino]imidazo[1,2-b]pyridazin-3-yl}benzamide]	1.5 nM
CNC(=O)c1ccc(-c2cc(NCC(C)C)c3ncc(-c4ccc(C(=O)NC5CC5)cc4)n3n2)cn1 [Example 149, 5-{3-[4-(Cyclopropylcarbamoyl)phenyl]-8-[(2-methylpropyl)amino]imidazo[1,2-b]pyridazin-6-yl}-N-methylpyridine-2-carboxamide]	2.2 nM
CC(C)CNc1cc(-c2ccc(NC(=O)N(C)C)cc2)nn2c(-c3ccc(C(=O)NC4CC4)cc3)cnc12 [Example 150, N-cyclopropyl-4-(6-{4-[(dimethylcarbamoyl)amino]phenyl}-8-[(2-methylpropyl)amino]imidazo[1,2-b]pyridazin-3-yl)benzamide]	3.7 nM
CC(C)CNc1cc(-c2ccc3[nH]c(=O)[nH]c3c2)nn2c(-c3ccc(C(=O)NC4CC4)cc3)cnc12 [Example 151, N-cyclopropyl-4-{8-[(2-methylpropyl)amino]-6-(2-oxo-2,3-dihydro-1H-benzimidazol-5-yl)imidazo[1,2-b]pyridazin-3-yl}benzamide]	3.1 nM
Cc1cc(-c2cnc3c(NCC(C)(C)O)cc(-c4cccc(CO)c4)nn23)ccc1C(=O)NC1CC1 [Example 153, N-cyclopropyl-4-{6-[3-(hydroxymethyl)phenyl]-8-[(2-hydroxy-2-methylpropyl)amino]imidazo[1,2-b]pyridazin-3-yl}-2-methylbenzamide]	3.6 nM
Cc1cc(-c2cnc3c(NCC(C)(C)O)cc(-c4cnn(C)c4)nn23)ccc1C(=O)NC1CC1 [Example 154, N-cyclopropyl-4-{8-[(2-hydroxy-2-methylpropyl)amino]-6-(1-methyl-1H-pyrazol-4-yl)imidazo[1,2-b]pyridazin-3-yl}-2-methylbenzamide]	25 nM
Cc1cc(-c2cnc3c(NCC(C)(C)O)cc(-c4ccc(CO)cc4)nn23)ccc1C(=O)NC1CC1 [Example 155, N-cyclopropyl-4-{6-[4-(hydroxymethyl)phenyl]-8-[(2-hydroxy-2-methylpropyl)amino]imidazo[1,2-b]pyridazin-3-yl}-2-methylbenzamide]	3.6 nM
Cc1cc(-c2cnc3c(NCC(C)(C)O)cc(-c4cccnc4)nn23)ccc1C(=O)NC1CC1 [Example 156, N-cyclopropyl-4-{8-[(2-hydroxy-2-methylpropyl)amino]-6-(pyridin-3-yl)imidazo[1,2-b]pyridazin-3-yl}-2-methylbenzamide]	5.1 nM
Cc1cc(-c2cnc3c(NCC(C)(C)O)cc(-c4ccoc4)nn23)ccc1C(=O)NC1CC1 [Example 157, N-cyclopropyl-4-{6-(furan-3-yl)-8-[(2-hydroxy-2-methylpropyl)amino]imidazo[1,2-b]pyridazin-3-yl}-2-methylbenzamide]	12 nM
CCOc1ccc(-c2cc(NCC(C)(C)O)c3ncc(-c4ccc(C(=O)NC5CC5)c(C)c4)n3n2)cn1 [Example 158, N-cyclopropyl-4-{6-(6-ethoxypyridin-3-yl)-8-[(2-hydroxy-2-methylpropyl)amino]imidazo[1,2-b]pyridazin-3-yl}-2-methylbenzamide]	6.4 nM
Cc1cc(-c2cnc3c(NCC(C)(C)O)cc(-c4c(C)noc4C)nn23)ccc1C(=O)NC1CC1 [Example 159, N-cyclopropyl-4-{6-(3,5-dimethyl-1,2-oxazol-4-yl)-8-[(2-hydroxy-2-methylpropyl)amino]imidazo[1,2-b]pyridazin-3-yl}-2-methylbenzamide]	14.8 nM
Cc1cc(-c2cnc3c(NCC(C)(C)O)cc(-c4cc[nH]n4)nn23)ccc1C(=O)NC1CC1 [Example 160, N-cyclopropyl-4-{8-[(2-hydroxy-2-methylpropyl)amino]-6-(1H-pyrazol-3-yl)imidazo[1,2-b]pyridazin-3-yl}-2-methylbenzamide]	13.6 nM
Cc1cc(-c2cnc3c(NCC(C)(C)O)cc(-c4cccn4C)nn23)ccc1C(=O)NC1CC1 [Example 161, N-cyclopropyl-4-{8-[(2-hydroxy-2-methylpropyl)amino]-6-(1-methyl-1H-pyrrol-2-yl)imidazo[1,2-b]pyridazin-3-yl}-2-methylbenzamide]	6.2 nM
Cc1cc(-c2cnc3c(NCC(C)(C)O)cc(-c4cn[nH]c4)nn23)ccc1C(=O)NC1CC1 [Example 162, N-cyclopropyl-4-{8-[(2-hydroxy-2-methylpropyl)amino]-6-(1H-pyrazol-4-yl)imidazo[1,2-b]pyridazin-3-yl}-2-methylbenzamide]	64.9 nM
Cc1cc(-c2cnc3c(NCC(C)(C)O)cc(-c4cncnc4)nn23)ccc1C(=O)NC1CC1 [Example 163, N-cyclopropyl-4-{8-[(2-hydroxy-2-methylpropyl)amino]-6-(pyrimidin-5-yl)imidazo[1,2-b]pyridazin-3-yl}-2-methylbenzamide]	30.5 nM
Cc1cc(-c2cnc3c(NCC(C)(C)O)cc(-c4ccc(F)c(CO)c4)nn23)ccc1C(=O)NC1CC1 [Example 165, N-cyclopropyl-4-{6-[4-fluoro-3-(hydroxymethyl)phenyl]-8-[(2-hydroxy-2-methylpropyl)amino]imidazo[1,2-b]pyridazin-3-yl}-2-methylbenzamide]	1.8 nM
Cc1cc(-c2cnc3c(NCC(C)(C)O)cc(C4=CCOCC4)nn23)ccc1C(=O)NC1CC1 [Example 166, N-cyclopropyl-4-{6-(3,6-dihydro-2H-pyran-4-yl)-8-[(2-hydroxy-2-methylpropyl)amino]imidazo[1,2-b]pyridazin-3-yl}-2-methylbenzamide]	5.3 nM
Cc1cc(-c2cnc3c(NCC(C)(C)O)cc(Oc4cccc5ncccc45)nn23)ccc1C(=O)NC1CC1 [Example 167, N-cyclopropyl-4-{8-[(2-hydroxy-2-methylpropyl)amino]-6-(quinolin-5-yloxy)imidazo[1,2-b]pyridazin-3-yl}-2-methylbenzamide]	2.3 nM
